Data reported in PMC3840712, “Enzymatic properties of Thermoanaerobacterium thermosaccharolyticum β-glucosidase fused to Clostridium cellulovorans cellulose binding domain and its application in hydrolysis of microcrystalline cellulose” (BMC Biotechnology, 2013).

Key:
[1] = tested on: T1, BGL-CBD; test: initial rates, cellobiose hydrolysis; format: biochemical, Thermoanaerobacterium thermosaccharolyticum; conditions: 50 mM citrate pH 6.0, 65°C
T1 construct: one polypeptide: BGL - PPP linker - C. cellulovorans CBD, pET-20b (NdeI/BamHI/XhoI; pET-BGL-Linker-CBD), Ni-NTA purified, E. coli JM109(DE3), about 69 kDa
Source text: initial rates, cellobiose hydrolysis on BGL-CBD

[2] = molecular target: T2, BGL (Thermoanaerobacterium thermosaccharolyticum, UniProt D9TR57); test: initial rates, cellobiose hydrolysis; format: biochemical; conditions: 50 mM citrate pH 6.0, 65°C
T2 construct: gene Tthe_1813
T2 sequence (D9TR57 1-444): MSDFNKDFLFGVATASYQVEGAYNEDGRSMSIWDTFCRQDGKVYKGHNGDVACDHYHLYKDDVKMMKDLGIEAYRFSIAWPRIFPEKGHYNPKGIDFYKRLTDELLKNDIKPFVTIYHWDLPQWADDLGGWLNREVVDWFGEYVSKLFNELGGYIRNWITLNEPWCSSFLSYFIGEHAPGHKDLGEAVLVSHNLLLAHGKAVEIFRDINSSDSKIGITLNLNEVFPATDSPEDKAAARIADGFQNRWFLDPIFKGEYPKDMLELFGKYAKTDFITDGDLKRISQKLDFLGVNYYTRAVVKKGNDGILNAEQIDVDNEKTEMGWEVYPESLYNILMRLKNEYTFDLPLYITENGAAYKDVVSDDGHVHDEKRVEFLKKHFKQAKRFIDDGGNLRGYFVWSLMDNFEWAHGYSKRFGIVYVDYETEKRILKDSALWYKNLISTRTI

[3] = molecular target: T2, BGL; test: pNP release at […] nm, […] inhibition; format: biochemical; conditions: pNPG as substrate, 50 mM citrate pH 6.0, 65°C; K i defined as glucose giving 50% inhibition
[4] = molecular target: T2, BGL; test: initial rates, pNP release at […] nm; format: biochemical; conditions: 50 mM citrate pH 6.0, 65°C
[5] = tested on: T1, BGL-CBD; test: initial rates, pNP release at […] nm; format: biochemical, Thermoanaerobacterium thermosaccharolyticum; conditions: 50 mM citrate pH 6.0, 65°C

OC[C@H]1O[C@@H](O[C@H]2[C@H](O)[C@@H](O)C(O)O[C@@H]2CO)[C@H](O)[C@@H](O)[C@@H]1O (some centres unmarked) [cellobiose]
Km [1]: 2620 µM
Km [2]: 7900 µM

OC[C@H]1OC(O)[C@H](O)[C@@H](O)[C@@H]1O (some centres unmarked) [glucose]
K i [3]: The BGL-CBD yielded approximately two times higher K i values for glucose than the BGL

O=[N+]([O-])c1ccc(O[C@@H]2O[C@H](CO)[C@@H](O)[C@H](O)[C@H]2O)cc1 [p-nitrophenyl-β-D-glucopyranoside]
Km [4]: 620 µM
Km [5]: 250 µM
